What was measured:
Type in all cases: biochemical
HDAC2 = target: T1, HDAC2 (Homo sapiens, UniProt Q92769); assay: Fluorometric HDAC inhibition assay, HDAC2; conditions: purified human protein; Ac-Gly-Ala-[Lys-Ac]-AMC substrate 10 μM; 15 min preincubation
T1 construct: TwinStrep-FLAG-HALO (N, cleaved yes); made in house; host or cells: HEK293/T17
Method: (§1) Large-scale expression of recombinant human HDACs was carried out as described previously.[32],[37] Briefly, HEK293/T17 cells were transiently transfected with expression pMM222 plasmids comprising N-terminally tagged (TwinStrep-FLAG-HALO tag; Figure S1) HDAC genes using linear poly(ethyleneimine) (PEI, Polysciences Inc.). Cells were harvested three days post-transfection, and cell pellets were resuspended in the lysis buffer (100 mM Tris-HCl, 10 mM NaCl, 5 mM KCl, 2 mM MgCl2, and 10% glycerol at pH 8.0). Cells were disrupted by sonication, cell lysates were cleared by centrifugation, and soluble fusion proteins were first purified by Streptactin affinity chromatography (IBA). For all HDACs but HDACs 1, 10, and 11, the N-terminal tag was cleaved off overnight by the addition of TEV protease (10:1 HDAC/TEV ratio). Size-exclusion chromatography on a Superose 6 column (GE Healthcare Bio-Sciences; running buffer 30 mM HEPES, 140 mM NaCl, 10 mM KCl, 3% glycerol, and 0.25 mM TCEP) was used as the final purification step for all HDAC constructs.
(§2) Optimized fluorometric assays were used to determine inhibition constants of studied compounds against individual HDAC isoforms as described previously.[32] Briefly, reactions were performed in the activity buffer comprising 50 mM HEPES, 140 mM NaCl, and 10 mM KCl at pH 7.4 supplemented with 1 mg mL^–1 bovine serum albumin (BSA), 1 mM tris(2-carboxyethyl)phosphine (TCEP), 10 μM substrates, and optimized concentrations of HDACs. The Ac-Gly-Ala-[Lys-Ac]-7-amino-methylcoumarylamide (AMC) substrate was used to profile HDACs 1, 2, 3, and 6; Boc-[Lys-TFA]-7-amino-methylcoumarylamide was used for HDACs 4, 5, 7, 8, and 9 (both substrates: Bachem); fluorescein-labeled N8-acetylspermidine was used for HDAC10;[32] and an internally quenched TNFα-derived peptide derivative was used for HDAC11.[39] Deacetylation reactions were monitored either by high-performance liquid chromatography (HPLC) (HDAC10) or by quantification of released AMC (λex/λem = 365/440 nm) using a CLARIOstar plate reader (BMG Labtech GmbH).

HDAC7 = target: T2, HDAC7 (Homo sapiens, UniProt Q8WUI4); assay: Fluorometric HDAC inhibition assay, HDAC7; conditions: purified human protein; Boc-[Lys-TFA]-AMC substrate 10 μM; 15 min preincubation
T2 construct: TwinStrep-FLAG-HALO (N, cleaved yes); made in house; host or cells: HEK293/T17
T2 sequence (Q8WUI4 1-952): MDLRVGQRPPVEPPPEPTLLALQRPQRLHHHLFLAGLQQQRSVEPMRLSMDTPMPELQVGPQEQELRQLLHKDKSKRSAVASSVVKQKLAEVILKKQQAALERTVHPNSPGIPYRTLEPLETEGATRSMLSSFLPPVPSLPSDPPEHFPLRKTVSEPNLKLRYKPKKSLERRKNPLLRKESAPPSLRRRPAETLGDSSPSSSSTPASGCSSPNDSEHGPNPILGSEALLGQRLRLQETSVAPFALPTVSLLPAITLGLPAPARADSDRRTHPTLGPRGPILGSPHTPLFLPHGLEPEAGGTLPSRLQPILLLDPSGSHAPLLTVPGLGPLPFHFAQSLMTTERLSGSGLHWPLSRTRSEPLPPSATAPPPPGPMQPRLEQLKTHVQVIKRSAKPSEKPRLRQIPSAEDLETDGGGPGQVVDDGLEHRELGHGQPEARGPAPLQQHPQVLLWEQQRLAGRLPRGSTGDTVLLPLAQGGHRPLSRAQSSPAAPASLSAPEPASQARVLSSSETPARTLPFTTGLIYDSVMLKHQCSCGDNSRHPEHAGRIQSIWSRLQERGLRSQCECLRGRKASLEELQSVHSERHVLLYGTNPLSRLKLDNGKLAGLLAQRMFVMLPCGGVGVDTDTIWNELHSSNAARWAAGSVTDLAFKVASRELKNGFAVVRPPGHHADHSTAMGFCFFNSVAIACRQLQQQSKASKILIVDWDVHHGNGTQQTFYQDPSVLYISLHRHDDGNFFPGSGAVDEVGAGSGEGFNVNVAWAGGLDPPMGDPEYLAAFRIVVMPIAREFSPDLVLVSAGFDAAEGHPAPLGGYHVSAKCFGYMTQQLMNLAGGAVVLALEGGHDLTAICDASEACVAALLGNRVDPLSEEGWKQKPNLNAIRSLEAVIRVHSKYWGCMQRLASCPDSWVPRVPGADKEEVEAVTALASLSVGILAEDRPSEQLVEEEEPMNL
Method: as §1, §2

HDAC1 = target: T3, HDAC1 (Homo sapiens, UniProt Q13547); assay: Fluorometric HDAC inhibition assay, HDAC1; conditions: purified human protein; Ac-Gly-Ala-[Lys-Ac]-AMC substrate 10 μM; 15 min preincubation
T3 construct: made in house; host or cells: HEK293/T17
Method: as §1, §2

HDAC3 = target: T4, HDAC3 (Homo sapiens, UniProt O15379); assay: Fluorometric HDAC inhibition assay, HDAC3; conditions: purified human protein; Ac-Gly-Ala-[Lys-Ac]-AMC substrate 10 μM; 15 min preincubation
T4 construct: TwinStrep-FLAG-HALO (N, cleaved yes); made in house; host or cells: HEK293/T17
Method: as §1, §2

HDAC4 = target: T5, HDAC4 (Homo sapiens, UniProt P56524); assay: Fluorometric HDAC inhibition assay, HDAC4; conditions: purified human protein; Boc-[Lys-TFA]-AMC substrate 10 μM; 15 min preincubation
T5 construct: TwinStrep-FLAG-HALO (N, cleaved yes); made in house; host or cells: HEK293/T17
Method: as §1, §2

HDAC5 = target: T6, HDAC5 (Homo sapiens, UniProt Q9UQL6); assay: Fluorometric HDAC inhibition assay, HDAC5; conditions: purified human protein; Boc-[Lys-TFA]-AMC substrate 10 μM; 15 min preincubation
T6 construct: TwinStrep-FLAG-HALO (N, cleaved yes); made in house; host or cells: HEK293/T17
Method: as §1, §2

HDAC8 = target: T7, HDAC8 (Homo sapiens, UniProt Q9BY41); assay: Fluorometric HDAC inhibition assay, HDAC8; conditions: purified human protein; Boc-[Lys-TFA]-AMC substrate 10 μM; 15 min preincubation
T7 construct: TwinStrep-FLAG-HALO (N, cleaved yes); made in house; host or cells: HEK293/T17
T7 sequence (Q9BY41 1-377): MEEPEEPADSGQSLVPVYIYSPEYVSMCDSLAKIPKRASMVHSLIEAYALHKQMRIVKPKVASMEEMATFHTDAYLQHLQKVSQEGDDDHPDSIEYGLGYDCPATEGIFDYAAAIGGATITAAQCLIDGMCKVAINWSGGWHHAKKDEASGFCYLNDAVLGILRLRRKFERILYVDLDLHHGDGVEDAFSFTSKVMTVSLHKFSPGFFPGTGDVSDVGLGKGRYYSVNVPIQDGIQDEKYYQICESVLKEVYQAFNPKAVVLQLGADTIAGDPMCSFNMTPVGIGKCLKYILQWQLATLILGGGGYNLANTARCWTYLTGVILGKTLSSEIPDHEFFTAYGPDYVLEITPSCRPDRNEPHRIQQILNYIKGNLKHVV
Method: as §1, §2

T1 sequence (Q92769 whole entry): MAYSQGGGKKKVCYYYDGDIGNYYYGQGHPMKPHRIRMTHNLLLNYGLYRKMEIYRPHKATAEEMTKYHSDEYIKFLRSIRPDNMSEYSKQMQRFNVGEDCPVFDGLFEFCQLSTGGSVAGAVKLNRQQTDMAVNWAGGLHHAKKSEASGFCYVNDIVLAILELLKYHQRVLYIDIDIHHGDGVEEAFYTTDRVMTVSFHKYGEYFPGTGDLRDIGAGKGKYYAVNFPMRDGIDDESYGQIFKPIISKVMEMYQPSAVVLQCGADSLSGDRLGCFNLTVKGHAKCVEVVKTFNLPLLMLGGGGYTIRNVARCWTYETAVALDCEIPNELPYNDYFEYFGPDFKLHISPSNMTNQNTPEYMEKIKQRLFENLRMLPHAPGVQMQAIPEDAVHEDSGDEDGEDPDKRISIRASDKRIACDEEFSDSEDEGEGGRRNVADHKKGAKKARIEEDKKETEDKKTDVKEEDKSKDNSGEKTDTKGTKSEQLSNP
T5 sequence (P56524 whole entry): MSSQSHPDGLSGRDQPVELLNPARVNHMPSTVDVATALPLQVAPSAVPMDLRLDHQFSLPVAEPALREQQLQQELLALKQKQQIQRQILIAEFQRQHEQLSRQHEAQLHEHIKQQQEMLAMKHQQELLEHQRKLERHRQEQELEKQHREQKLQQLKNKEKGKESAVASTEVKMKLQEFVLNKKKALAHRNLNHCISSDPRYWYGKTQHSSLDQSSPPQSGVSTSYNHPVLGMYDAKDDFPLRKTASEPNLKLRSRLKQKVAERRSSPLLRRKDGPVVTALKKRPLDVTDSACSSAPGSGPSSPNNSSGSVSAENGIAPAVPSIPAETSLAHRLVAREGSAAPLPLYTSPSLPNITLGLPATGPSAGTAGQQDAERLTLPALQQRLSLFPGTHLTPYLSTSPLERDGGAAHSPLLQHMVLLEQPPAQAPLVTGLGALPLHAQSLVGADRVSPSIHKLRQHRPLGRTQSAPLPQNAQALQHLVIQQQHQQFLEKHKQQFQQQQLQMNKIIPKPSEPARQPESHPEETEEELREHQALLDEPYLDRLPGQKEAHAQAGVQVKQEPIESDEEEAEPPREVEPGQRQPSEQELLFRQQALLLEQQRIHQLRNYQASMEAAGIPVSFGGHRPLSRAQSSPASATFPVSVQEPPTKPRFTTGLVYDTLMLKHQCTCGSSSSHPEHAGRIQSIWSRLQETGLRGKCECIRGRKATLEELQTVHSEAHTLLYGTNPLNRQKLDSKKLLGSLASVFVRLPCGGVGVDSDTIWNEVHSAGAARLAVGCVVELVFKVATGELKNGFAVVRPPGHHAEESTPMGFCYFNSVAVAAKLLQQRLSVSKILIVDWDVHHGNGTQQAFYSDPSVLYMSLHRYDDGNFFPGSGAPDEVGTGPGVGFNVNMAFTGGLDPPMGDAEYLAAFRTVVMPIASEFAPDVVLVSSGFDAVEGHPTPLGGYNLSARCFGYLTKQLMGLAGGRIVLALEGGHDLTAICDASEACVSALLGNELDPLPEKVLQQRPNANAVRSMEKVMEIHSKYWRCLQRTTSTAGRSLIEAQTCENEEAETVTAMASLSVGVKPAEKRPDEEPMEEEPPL
T6 sequence (Q9UQL6 whole entry): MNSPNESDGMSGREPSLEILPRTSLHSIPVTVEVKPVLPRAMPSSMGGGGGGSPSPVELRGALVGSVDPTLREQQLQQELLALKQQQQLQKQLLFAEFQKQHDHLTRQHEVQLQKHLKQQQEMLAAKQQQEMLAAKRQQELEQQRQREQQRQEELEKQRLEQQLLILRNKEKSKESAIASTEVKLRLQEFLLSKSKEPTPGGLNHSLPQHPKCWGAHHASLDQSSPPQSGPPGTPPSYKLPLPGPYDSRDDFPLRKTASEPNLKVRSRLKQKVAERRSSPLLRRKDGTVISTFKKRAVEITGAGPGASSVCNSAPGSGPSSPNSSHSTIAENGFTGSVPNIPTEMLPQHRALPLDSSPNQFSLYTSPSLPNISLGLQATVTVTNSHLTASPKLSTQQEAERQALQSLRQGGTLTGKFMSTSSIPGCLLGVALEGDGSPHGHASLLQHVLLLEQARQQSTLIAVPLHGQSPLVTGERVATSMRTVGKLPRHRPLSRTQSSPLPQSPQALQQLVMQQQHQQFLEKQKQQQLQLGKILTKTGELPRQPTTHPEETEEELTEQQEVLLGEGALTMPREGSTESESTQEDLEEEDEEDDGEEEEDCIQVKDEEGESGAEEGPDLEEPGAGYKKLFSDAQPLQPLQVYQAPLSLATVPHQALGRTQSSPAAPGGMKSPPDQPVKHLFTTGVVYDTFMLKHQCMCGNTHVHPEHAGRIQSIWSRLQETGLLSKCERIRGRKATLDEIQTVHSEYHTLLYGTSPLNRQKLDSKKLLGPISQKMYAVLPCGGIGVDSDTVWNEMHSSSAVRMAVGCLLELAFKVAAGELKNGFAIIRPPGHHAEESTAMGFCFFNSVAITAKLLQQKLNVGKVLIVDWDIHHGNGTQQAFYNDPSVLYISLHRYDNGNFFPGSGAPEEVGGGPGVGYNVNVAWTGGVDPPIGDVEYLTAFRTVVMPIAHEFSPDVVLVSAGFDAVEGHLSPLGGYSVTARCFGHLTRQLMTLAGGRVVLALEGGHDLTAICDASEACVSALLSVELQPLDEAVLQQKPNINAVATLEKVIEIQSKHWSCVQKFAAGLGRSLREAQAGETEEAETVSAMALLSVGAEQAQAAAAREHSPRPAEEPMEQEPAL
T3 sequence (Q13547 whole entry): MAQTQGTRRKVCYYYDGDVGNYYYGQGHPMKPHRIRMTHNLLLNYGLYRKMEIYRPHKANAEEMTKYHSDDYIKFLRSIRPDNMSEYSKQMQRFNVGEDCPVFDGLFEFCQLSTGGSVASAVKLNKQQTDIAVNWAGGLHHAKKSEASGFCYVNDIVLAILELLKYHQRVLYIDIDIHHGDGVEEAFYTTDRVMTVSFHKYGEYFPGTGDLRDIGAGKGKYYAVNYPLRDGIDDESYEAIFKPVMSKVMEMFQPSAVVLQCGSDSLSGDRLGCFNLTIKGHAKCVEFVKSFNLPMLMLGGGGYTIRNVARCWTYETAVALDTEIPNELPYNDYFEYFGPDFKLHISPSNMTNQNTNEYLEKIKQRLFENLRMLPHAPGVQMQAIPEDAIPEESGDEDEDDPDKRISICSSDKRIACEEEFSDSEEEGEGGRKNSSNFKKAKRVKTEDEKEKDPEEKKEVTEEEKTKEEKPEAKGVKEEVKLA
T4 sequence (O15379 whole entry): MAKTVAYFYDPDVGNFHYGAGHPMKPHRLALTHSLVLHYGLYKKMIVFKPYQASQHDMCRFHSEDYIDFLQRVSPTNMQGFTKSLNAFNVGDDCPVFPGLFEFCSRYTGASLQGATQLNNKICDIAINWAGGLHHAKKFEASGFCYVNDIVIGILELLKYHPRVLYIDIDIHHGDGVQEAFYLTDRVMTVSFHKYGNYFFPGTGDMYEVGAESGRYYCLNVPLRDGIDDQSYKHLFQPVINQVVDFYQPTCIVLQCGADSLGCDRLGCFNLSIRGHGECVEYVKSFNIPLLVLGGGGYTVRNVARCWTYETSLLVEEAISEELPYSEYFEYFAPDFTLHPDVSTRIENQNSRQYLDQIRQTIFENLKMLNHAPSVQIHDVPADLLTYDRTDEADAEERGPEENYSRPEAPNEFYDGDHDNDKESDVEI
T4 sequence (Q9Y618 389-480 partner limits assumed): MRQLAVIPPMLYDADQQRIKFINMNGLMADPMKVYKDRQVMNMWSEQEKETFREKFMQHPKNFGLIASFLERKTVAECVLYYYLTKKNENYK

Row | Compound | IC50 (HDAC2) [µM] | IC50 (HDAC7) [µM] | IC50 (HDAC1) [µM] | IC50 (HDAC3) [µM] | IC50 (HDAC4) [µM] | IC50 (HDAC5) [µM] | IC50 (HDAC8) [µM]
1 | CS(=O)(=O)N(Cc1ccc(C(=O)NN)cn1)c1cccc(Cl)c1 [compound 4] | > 20 | > 20 | > 20 | > 20 | > 20 | > 20 | > 20
2 | CS(=O)(=O)N(Cc1ccc(C(=O)NNC(=O)C(F)(F)F)cn1)c1cccc(Cl)c1 [compound 5] | > 20 | – | 9.17 | – | > 20 | – | > 20
3 | CS(=O)(=O)N(Cc1ccc(-c2nnc(C(F)F)o2)cn1)c1cccc(Cl)c1 [compound 8] | > 20 | > 20 | > 20 | > 20 | > 20 | > 20 | > 20
4 | CS(=O)(=O)N(Cc1ccc(-c2nnc(C(F)(F)F)o2)cn1)c1cccc(Cl)c1 [compound 7] | 17.4 | > 20 | > 20 | > 20 | > 20 | > 20 | > 20
5 | CS(=O)(=O)N(Cc1ccc(C(=O)NNC(=O)C(F)F)cn1)c1cccc(Cl)c1 [compound 6] | – | – | > 20 | – | > 20 | – | > 20
